Biological target: bovine pancreatic DNase I (Bos taurus, UniProt P00639)
Conditions: for reduction of enzyme activity induced by the addition of salt: 100 mM sodium chloride added to reaction with 40% (v/v) alcohol (FIG. 2); for DNase I activity, % of Standard conditions: alcohol at 40% (v/v) in the Standard reaction, without sodium chloride (FIG. 2)
Method: The enzymatic hydrolysis of calf thymus genomic DNA was assayed using a method modified from that described by Desai and Shankar (Eur. J. Biochem., 2000; 267: 5123-5135). The standard reaction mixture was 0.1 mL volume, containing 30 μg of sonicated native calf thymus genomic DNA (Sigma, St. Louis Mo., #D-3664), in a buffer solution composed of 100 mM Tris HCl(pH 8.0)/10 mM MgSO4/1 mM CaCl2, with appropriately diluted DNase I (usually 0.02-1.0 Enzyme Units, as defined below). The reaction was initiated by the addition of enzyme, with incubation at room temperature for a defined period of time (usually 10-20 minutes), after which the reaction was terminated by rapid sequential addition of 0.1 mL of 1 mg/mL Bovine Serum Albumin (Sigma, #A3803) and 1.0 mL of ice cold 2% (v/v) Perchloric Acid. The terminated reaction mixture was vortex mixed, then chilled on ice for 20-30 minutes, follwed by centrifugation at 16,000×g for 10 minutes at 4 degrees centrigrade. The clarified supernatant contains acid-soluble oligonucleotides liberated by the action of DNase I-like activity, at concentrations determined using absorbance measurements determined in a 1 cm pathlength cell in the Agilent 8453 spectrophotometer (Agilent Technologies, Wilmington Del.). A molar extinction coefficient of 10,000 M^−1cm^−1 was employed for oligonucleotide concentration estimation in the acidic solution. Unit activity under these assay conditions is defined as umol of acid-soluble oligonucleotides generated per minute at 25 degrees centigrade. In the experiments shown in the examples that follow, bovine pancreatic DNase I is employed to illustrate the effects of various manipulations on the activity of this enzyme. Typically, the reaction employs approximately 0.1 enzyme units, as defined by the Kunitz assay, as discussed above (see Kunitz. J. Gen. Physiol. 1950; 33:349-362).
Bovine pancreatic DNase I (Fermentas, #EN0523) was assayed for gDNA hydrolytic activity, as described above, using the Standard reaction conditions, but modified by the inclusion of various quantities of iso-propanol (i-propanol, 2-propanol), with or without the further inclusion of sodium chloride at 100 mM.

Chain of bovine pancreatic DNase I (P00639 23-282): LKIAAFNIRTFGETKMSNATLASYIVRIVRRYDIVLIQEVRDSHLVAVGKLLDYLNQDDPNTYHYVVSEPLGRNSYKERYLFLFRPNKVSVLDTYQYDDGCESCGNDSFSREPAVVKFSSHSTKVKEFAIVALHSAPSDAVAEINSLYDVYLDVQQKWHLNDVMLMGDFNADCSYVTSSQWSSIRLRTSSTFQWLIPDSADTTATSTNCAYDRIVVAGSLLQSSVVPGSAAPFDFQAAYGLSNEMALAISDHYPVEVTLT

DNase I activity, % of Standard conditions | DNase I activity, % of the Standard activity level (20% i-propanol added to solution containing 100 mM sodium chloride (FIG. 1)) | DNase I activity relative to standard conditions (20% i-propanol, no sodium chloride, room temperature (FIG. 1)) | DNase I enzyme activity observed (high salt (100 mM sodium chloride) and high alcohol content (FIG. 1)) | DNase I activity, % of the standard condition (higher concentrations of i-propanol (above 20%, up to and above 80%), no sodium chloride (FIG. 1)) | DNase I activity, % of Standard reaction conditions (alcohol at 40% (v/v) plus 100 mM sodium chloride (FIG. 2)) | Compound | reduction of enzyme activity induced by the addition of salt
40% | – | – | – | – | – | CCO [Ethanol] | three-fold reduction
40% | 101% | more than doubling the activity | greater than 50% | about 50% | – | CC(C)O [i-propanol, iso-propanol] | least prevented the inhibition of the enzyme by salt
about 10% | – | – | – | – | less than 5% | n-propanol | –
